Reference: PubChem BioAssay (NCI)
“And” between values parts separate entries of the source, which are not always exact repeats. Equal values may be shown once.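 Protocol summary: plate cells (96-well), add compound at 5 concentrations, incubate 48 h, interpolate endpoints linearly. At the GI50, growth is halved. TGI is the concentration that stops growth completely.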

Columns and labels:
Test in all cases: NCI anticancer screen, dose series, 48 h
[1] = tested on: ACHN renal
[2] = tested on: OVCAR-3 ovarian
[3] = tested on: CCRF-CEM leukemia
[4] = tested on: EKVX NSCLC
[5] = tested on: SNB-75 CNS
[6] = tested on: SF-295 CNS
[7] = tested on: PC-3 prostate
[8] = tested on: SW-620 colon

Structure (SMILES)	GI50 [1]	TGI [1]	GI50 [2]	TGI [2]	GI50 [3]	TGI [3] [µM]	GI50 [4] [µM]	TGI [4] [µM]	GI50 [5]	TGI [5]	GI50 [6]	TGI [6]	GI50 [7]	TGI [7]	GI50 [8]	TGI [8]
CCc1ccc2c(c1)N(CCO)C1=C(C(=O)OC1)C2c1cc(OC)c(OC)c(OC)c1 (stereo not drawn)	0.389 µM	> 50 µM	0.112 µM	0.274 µM	0.185 µM	> 50	1.17	> 50	0.134 µM	> 50 µM	0.126 µM	0.469 µM	0.196 µM	> 50 µM	0.168 µM	> 50 µM
COc1ccc2c(c1OC)O/C(=C\c1ncc([N+](=O)[O-])n1C)C2=O	0.342 µM	1.46 µM	1.6 µM	6.16 µM	0.297 µM	2.83	–	–	2.14 µM	6.85 µM	3.13 µM	21.7 µM	3.76 µM	> 29.4 µM	0.385 µM	–
Cc1ccc(C2CC(c3ccc(Nc4ccnc5cc(Cl)ccc45)cc3)=NN2C=O)cc1 (stereo not drawn)	3.27 µM	> 100 µM	6.82 µM	> 100 µM	2.25 µM	> 100	–	–	> 100 µM	> 100 µM	4 µM	> 100 µM	4.61 µM	> 100 µM	> 100 µM	> 100 µM
COc1cc(NC2CCCCC2O)c2nc(-c3ccc(Cl)cc3)ccc2c1 (stereo not drawn)	8.94 µM	> 100 µM	10.5 µM	32.8 µM	4.34 µM	68.5	18.1	> 100	5.04 µM	59.1 µM	2.8 µM	12.1 µM	4.87 µM	> 100 µM	7.52 µM	46.7 µM
C#C[C@]1(O)CC[C@H]2[C@@H]3CC=C4c5nc(N)sc5CC[C@]4(C)[C@H]3CC[C@@]21C	5.25 µM	30.2 µM	3.1 µM	9.84 µM	2.79 µM	14.9	5.47	50.9	–	–	1.98 µM	4.05 µM	3.66 µM	19.7 µM	2.81 µM	8.68 µM
CN(C)c1ccc(C(O)C2=CC(=O)c3ccccc3C2=O)cc1 (stereo not drawn)	3.69 µM	31.8 µM	2.75 µM	–	–	–	5.37	92.9	–	–	25.1 µM	93.3 µM	–	–	–	–
CC(=O)Oc1cc2cnc3c4cc(OC(C)=O)c(OC(C)=O)cc4ccc3c2cc1OC(C)=O	1.19 µM	> 100 µM	1.01 µM	9.5 µM	0.608 µM	> 100	–	–	0.25 µM	7.7 µM	3.36 µM	> 100 µM	3.27 µM	> 100 µM	0.952 µM	> 100 µM
O=C(O)CCCCC1CCSS1 (stereo not drawn)	–	> 100 µM	–	> 100 µM	–	> 100	–	> 100	–	> 100 µM	–	> 100 µM	–	> 100 µM	–	> 100 µM
Cc1cc(S(N)(=O)=O)c(S/C(=N\NS(=O)(=O)c2ccccc2)c2ccc(Cl)cc2)cc1Cl	> 100 µM	> 100 µM	47.6 µM	> 100 µM	99.7 µM	> 100	> 100	> 100	–	–	22.5 µM	> 100 µM	38.9 µM	> 100 µM	> 100 µM	> 100 µM
CCn1c(-c2nonc2N)nc2cnc(Oc3cccc(NC(=O)c4ccc(N(C)C)cc4)c3)cc21	> 25 µM	> 25 µM	> 25 µM	> 25 µM	1.82 µM	> 25	2.87	> 25	0.106 µM	> 25 µM	12 µM	> 25 µM	12.4 µM	> 25 µM	> 25 µM	> 25 µM
COc1ccc(-c2csc(Nc3cccc(-c4csc(C)n4)c3)n2)cc1	0.859 µM	18.6 µM	0.489 µM	> 10.8 µM	–	–	3.63	> 50	–	–	0.68 µM	> 11.5 µM	1.97 µM	> 50 µM	0.441 µM	> 50 µM
C=C1CC[C@H]2C(C)=CC[C@H]3C(=C)C(=O)O[C@@H]3[C@@H]12	–	> 100 µM	–	–	–	> 100	–	> 100	–	–	–	> 100 µM	–	> 100 µM	–	> 100 µM
CS(=O)(=O)Nc1cc(-c2ccc3ncnc(Nc4cccc(Cl)c4)c3c2)cnc1Cl	0.474 µM	46.6 µM	0.343 µM	2.28 µM	0.463 µM	20.7	0.416	3.59	–	–	0.335 µM	2.2 µM	0.288 µM	11.5 µM	0.48 µM	4.87 µM
CC1(C)N=C(N)N=C(N)N1c1cccc(CCc2ccccc2)c1	13.4 µM	> 100 µM	0.44 µM	24.9 µM	0.566 µM	> 100	1.1	> 100	0.707 µM	46.4 µM	0.604 µM	> 100 µM	0.11 µM	> 59 µM	0.156 µM	> 100 µM
COc1cccc(-c2nc3sccn3c2-c2ccnc(NCCCNS(=O)(=O)c3ccccc3)c2)c1	2.66 µM	> 100 µM	3.3 µM	> 100 µM	2.73 µM	> 100	3.68	> 100	1.55 µM	8.08 µM	3.18 µM	20.8 µM	1.97 µM	6.3 µM	3.81 µM	> 100 µM
COc1cc2ncnc(Oc3cccc(NC(=O)Nc4cc(C(C)(C)C(F)(F)F)on4)c3)c2cc1OC	0.438 µM and 0.598 µM	12.9 µM and > 10 µM	2.66 µM and 3.62 µM	16.5 µM and > 10 µM	3.06 µM and 3.26 µM	> 100	1.52	> 10	2.79 µM and 6.27 µM	13.5 µM and > 10 µM	2.91 µM and 2.98 µM	13.1 µM and > 10 µM	2.65 µM and 3.68 µM	19.4 µM and > 10 µM	1.21 µM and 1.6 µM	20.8 µM and > 10 µM
C[C@@H]1CCc2ncc(F)cc2[C@H]2CCCN2c2ccn3ncc(c3n2)C(=O)N1	65.9 µM	> 100 µM	88.6 µM	> 100 µM	> 100 µM	> 100	48.8	> 100	19.6 µM	97 µM	60.6 µM	> 100 µM	> 100 µM	> 100 µM	> 100 µM	> 100 µM
